Assay [1] relates to Krümmungssyndrom an der Ratte. Description: Analgesic effect: acetic acid-induced writhing syndrome in the rat. In kind it is in vivo. Particulars: peroral, 1 h before i.p. 3 % acetic acid, dose (by interpolation) reducing number of writhings by 50 %, counted for 20 min. The procedure:
Diese Wirkung wird durch Auswertung des Krümmungssyndroms an der Ratte bestimmt. Das Krümmungssyndrom wird z.B..in weiblichen Ratten von 120-140 g (5 Tiere pro Gruppe) durch eine intraperitoneale Injektion von 0,2 ml einer 3 %igen Essigsäurelösung eine Stunde nach der oralen Verabreichung der geprüften Substanz, hervorgerufen. Die Krümmungs-Bewegungen der Versuchstiere werden während 20 Minuten gezählt.
Die analgetische (antinociceptive) Wirksamkeit einer Verbindung wird durch die Bestimmung der Dosis (durch Interpolieren), welche bei Kontrolltieren (die lediglich den Trägerstoff der Wirksubstanz erhalten haben) die Anzahl der Krümmungen um 50% vermindert, beurteilt. ( ED50).
Literatur: Ziel et al., Pain Res. and Therapy, Vol. 1, ed. Bonica and Albe, Raven Press N.Y., 1976, p. 517.
(An intraperitoneal irritant provokes the stretching counted in writhing tests.)

A further assay has as its system LDL-Cholesterin. Description: Effect on serum lipids and lipoproteins (LDL cholesterol) in male rats after oral treatment. The assay is classed as in vivo, Ratten. The note with it: 50 mg/kg peroral, once daily for 3 days, twice on day 4, serum 16 h after last dose. The text has this: Die in den Präparaten der Erfindung verwendeten Verbindungen zeigen wertvolle pharmakologische Eigenschaften, z.B. hypolipidämische Wirkungen mit günstiger Beeinflussung des Lipoproteinspektrums, ferner, insbesondere Verbindungen der Formel I, worin R3 für einen heterocyelischen Rest aromatischen Charakters, in erster Linie Pyridyl steht, analgetische Effekte. Diese pharmakologischen Eigenschaften können in Tierversuchen, vorzugsweise an Säugetieren, z.B. Ratten nachgewiesen werden. Hierbei können die Verbindungen enteral oder parenteral, vorzugsweise oral, subkutan oder intraperitoneal in einem Dosisbereich von 1 bis 100 mg/kg/Tag verabreicht werden. Beispielsweise wird die Senkung von "low und very low-density"-Lipoproteinen (LDL und VLDL), sowie die Senkung von Cholesterin und Triglyceriden im Serum wie folgt bestimmt: Männlichen Ratten verabreicht man an 3 Tagen einmal täglich 50 mg Wirkstoff peroral. Am 4. Tag werden die Tiere 2-mal behandelt. Am 5. Tag wird Serum gewonnen und die Lipoproteine werden mit einer Ultrazentrifuge aufgetrennt. Im Serum und in den isolierten Lipoproteinfraktionen werden das Cholesterin und die Triglyceride bestimmt. [K.R. Müller und R.G. Cortesi, Artery 4 (6): 564-577 (1978)].
Männliche Ratten von 180-200 g Körpergewicht erhalten an 3 Tagen einmal täglich peroral die Prüfsubstanz gelöst in Polyäthylenglykol 400. Am 4. Tag werden die Tiere zweimal, morgens und abends, behandelt. Nach der letzten Behandlung wird den Tieren das Futter entzogen. Sechzehn Stunden später werden die Ratten getötet. Aus dem Blut wird Serum gewonnen.
Gleiche Mengen Serum von je 2 Ratten aus derselben Gruppe werden vereinigt, und 0.05 EDTA (Aethylendiamintetraessigsäure) und 0,01 % Thimerosal werden zugesetzt. Die Serumlipoproteine werden durch Ultrazentrifugieren in einem Beckman 40.3 Rotor isoliert. Die VLDL (very low density lipoproteins) werden durch 24-stündiges
Zentrifugieren bei 78 000 g und der Dichte 1.006 gewonnen, die LDL (low density lipoproteins) durch 24-stündiges Zentrifugieren bei 78 000 g und der Dichte 1,040, und die HDL (high density lipoproteins) durch 24-stündiges Zentrifugieren bei 109 000 g und der Dichte 1.21.
In jeder Serumprobe und in jeder Lipoproteinfraktion werden Cholesterin und Triglyceride mit enzymatischen Methoden bestimmt. LDL-Cholesterin wurde als wichtigster Parameter für die Beurteilung der Lipidsenkung betrachtet.
Literatur: K.R. Müller und R.G. Cortesi, Artery 4(6):564-577 (1978).
Die Zahlen der folgenden Resultate geben die Aenderungen vom LDL-Cholesterin in % der Kontrolle an. Dosierung: 50 mg/kg peroral.

Where [2] appears, read: Rattus norvegicus, po, read-out: ED50.

Where two headings read alike, the source gives them in different places.

On to “6-Methyl-2-(3-pyridyl)-5-butyloxy-5H-[1]benzopyrano[4,3-d]pyrimidin”, for which the ED50 in assay [1] is listed as 60 mg/kg. Consider `CCOC1Oc2ccccc2-c2nc(-c3ccccn3)ncc21` (stereo not shown) [1-(2-Pyridyl)-5-äthoxy-5H-[1]benzopyrano[4,3-d]pyrimidin], for which, in assay [1] (setting [2]), the ED50 came out at 15 mg/kg. Take `CCCOC1Oc2ccccc2-c2nc(-c3cccc(OC)c3)ncc21` (stereo not shown) [2-(3-Methoxy-phenyl)-5-propyloxy-5H-[1]benzopyrano[4,3-d]pyrimidin]: the “Aenderungen vom LDL-Cholesterin in % der Kontrolle” value with LDL-Cholesterin is -43%. `CCCCOC1Oc2ccccc2-c2nc(-c3cccnc3)ncc21` (stereo not shown) [2-(3-Pyridyl)-5-butyloxy-5H-[1]benzopyrano[4,3-d]pyrimidin]: in assay [1] (setting [2]), the ED50 stood at 5 mg/kg.

As for `CCOC1Oc2ccccc2-c2nc(-c3cccnc3)ncc21` (stereo not shown) [2-(3-Pyridyl)-5-äthoxy-5H-[1]benzopyrano[4,3-d]pyrimidin], the ED50 in assay [1] (setting [2]) came to 1.5 mg/kg. With `CCOC1Oc2ccccc2-c2nc(-c3ccc(O)cc3)ncc21` (stereo not shown) [2-(4-Hydroxy-phenyl)-5-äthyloxy-5H-[1]benzopyrano[4,3-d]pyrimidin], in the assay with LDL-Cholesterin, the “Aenderungen vom LDL-Cholesterin in % der Kontrolle” value is -69%. Consider `CCCOC1Oc2ccccc2-c2nc(-c3ccc(OC)cc3)ncc21` (stereo not shown) [2-(4-Methoxy-phenyl)-5-propyloxy-5H-[1]benzopyrano[4,3-d]pyrimidin], for which the “Aenderungen vom LDL-Cholesterin in % der Kontrolle” value with LDL-Cholesterin was -38%.

On to `CCCOC1Oc2ccccc2-c2nc(-c3ccncc3)ncc21` (stereo not shown) [2-(4-Pyridyl)-5-propyloxy-5H-[1]benzopyrano[4,3-d]pyrimidin], for which the ED50 in assay [1] (setting [2]) came to 15 mg/kg.

Regarding `CCCCOC1Oc2ccccc2-c2nc(-c3cccc(C)c3)ncc21` (stereo not shown) [2-(5-Methyl-phenyl)-5-butyloxy-5H-[1]benzopyrano[4,3-d]pyrimidin], the “Aenderungen vom LDL-Cholesterin in % der Kontrolle” value with LDL-Cholesterin was -29%. On to `CCOC1Oc2ccccc2-c2nc(-c3ccccc3)ncc21` (stereo not shown) [2-Phenyl-5-äthoxy-5H-[1]benzopyrano[4,3-d]pyrimidin], for which the “Aenderungen vom LDL-Cholesterin in % der Kontrolle” value with LDL-Cholesterin is given as -61%.

By ED50 is commonly meant the dose that gives a 50% effect, or the effect in half of the subjects.

(Values after patent EP0051177A2, “Pharmaceutical preparations containing substituted ether compounds, their use, substituted ether compounds and process for their preparation” (CIBA-GEIGY AG, priority 1980, dated 1982).)
